Here are results for two compounds from PubChem BioAssay (NCI).

Test systems include CAKI-1 renal; RXF 393 renal; OVCAR-5 ovarian; CCRF-CEM leukemia; NCI/ADR-RES ovarian; HCT-116 colon; DU-145 prostate; UO-31 renal; SK-MEL-28 melanoma; SK-MEL-2 melanoma.
Holding throughout (assay): inhibition of tumour cell growth, NCI panel, 48 h

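Exposure lasted 48 hours, with cells grown in 96-well plates and compounds tested at five concentrations. TGI: concentration producing complete growth inhibition.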 Where a SMILES comes first, the peptide text is derived from it. [ ]: non-standard residue; d: D form. The star is where a group is joined. ξ: configuration not given here. Propanoyl(3-(4-MeO-Ph)) = COc1ccc(CCC(=O)*)cc1; Thr(3ξ) = CC(O)[C@H](N)C(=O)O; dNMeL = CN[C@H](CC(C)C)C(=O)O; ξLac = CC(O)C(=O)O Bounds are passed on as bounds.

Turning to `CC(O)c1cc2c(s1)C(=O)c1scc(C(C)O)c1C2=O` (stereo not given), the TGI is 2740 nM in the assay with CAKI-1 renal; 2570 nM in the assay with RXF 393 renal; 3370 nM with OVCAR-5 ovarian; greater than 100000 nM in the assay with CCRF-CEM leukemia; 1050 nM in the assay with NCI/ADR-RES ovarian; 2640 nM in the assay on HCT-116 colon. The TGI with DU-145 prostate was 1730 nM; in the assay on UO-31 renal, 1410 nM; with SK-MEL-28 melanoma it was 620 nM; with SK-MEL-2 melanoma, 606 nM.

For `COC(=O)[C@@H](NC(=O)[C@@H](CC(C)C)N(C)C(=O)[C@@H]1CCCN1C(=O)C(C)O)C(C)OC(=O)CCc1ccc(OC)cc1` (stereo not given in full) (H-[ξLac]P[dNMeL][Thr(3ξ)](Propanoyl(3-(4-MeO-Ph)))-OMe), the TGI in the assay with CAKI-1 renal, in the assay on RXF 393 renal, with OVCAR-5 ovarian, with CCRF-CEM leukemia, in the assay on NCI/ADR-RES ovarian and in the assay with HCT-116 colon was greater than 100000 nM throughout. Also, the TGI in the assay on DU-145 prostate, with UO-31 renal, with SK-MEL-28 melanoma and in the assay on SK-MEL-2 melanoma was greater than 100000 nM throughout.
